Results: patent publication US6673793B2, “Oxazinoquinolones useful for the treatment of viral infections” (Pharmacia & Upjohn Co., priority 2000, dated 2004)

How the values were obtained:
[1] = molecular target: T1, CMV polymerase (Human cytomegalovirus, UniProt P08546); assay: HCMV polymerase assay, scintillation proximity assay (SPA), modified version; type: biochemical; conditions: modified HCMV polymerase SPA assay: compounds diluted in 100% DMSO, 4.5 mM DTT in polymerase buffer, different lot of CMV polymerase; read-out: CMV polymerase IC50
T1 construct: made in house; host or cells: recombinant baculovirus-infected SF-9 cells
T1 sequence (P08546 whole entry): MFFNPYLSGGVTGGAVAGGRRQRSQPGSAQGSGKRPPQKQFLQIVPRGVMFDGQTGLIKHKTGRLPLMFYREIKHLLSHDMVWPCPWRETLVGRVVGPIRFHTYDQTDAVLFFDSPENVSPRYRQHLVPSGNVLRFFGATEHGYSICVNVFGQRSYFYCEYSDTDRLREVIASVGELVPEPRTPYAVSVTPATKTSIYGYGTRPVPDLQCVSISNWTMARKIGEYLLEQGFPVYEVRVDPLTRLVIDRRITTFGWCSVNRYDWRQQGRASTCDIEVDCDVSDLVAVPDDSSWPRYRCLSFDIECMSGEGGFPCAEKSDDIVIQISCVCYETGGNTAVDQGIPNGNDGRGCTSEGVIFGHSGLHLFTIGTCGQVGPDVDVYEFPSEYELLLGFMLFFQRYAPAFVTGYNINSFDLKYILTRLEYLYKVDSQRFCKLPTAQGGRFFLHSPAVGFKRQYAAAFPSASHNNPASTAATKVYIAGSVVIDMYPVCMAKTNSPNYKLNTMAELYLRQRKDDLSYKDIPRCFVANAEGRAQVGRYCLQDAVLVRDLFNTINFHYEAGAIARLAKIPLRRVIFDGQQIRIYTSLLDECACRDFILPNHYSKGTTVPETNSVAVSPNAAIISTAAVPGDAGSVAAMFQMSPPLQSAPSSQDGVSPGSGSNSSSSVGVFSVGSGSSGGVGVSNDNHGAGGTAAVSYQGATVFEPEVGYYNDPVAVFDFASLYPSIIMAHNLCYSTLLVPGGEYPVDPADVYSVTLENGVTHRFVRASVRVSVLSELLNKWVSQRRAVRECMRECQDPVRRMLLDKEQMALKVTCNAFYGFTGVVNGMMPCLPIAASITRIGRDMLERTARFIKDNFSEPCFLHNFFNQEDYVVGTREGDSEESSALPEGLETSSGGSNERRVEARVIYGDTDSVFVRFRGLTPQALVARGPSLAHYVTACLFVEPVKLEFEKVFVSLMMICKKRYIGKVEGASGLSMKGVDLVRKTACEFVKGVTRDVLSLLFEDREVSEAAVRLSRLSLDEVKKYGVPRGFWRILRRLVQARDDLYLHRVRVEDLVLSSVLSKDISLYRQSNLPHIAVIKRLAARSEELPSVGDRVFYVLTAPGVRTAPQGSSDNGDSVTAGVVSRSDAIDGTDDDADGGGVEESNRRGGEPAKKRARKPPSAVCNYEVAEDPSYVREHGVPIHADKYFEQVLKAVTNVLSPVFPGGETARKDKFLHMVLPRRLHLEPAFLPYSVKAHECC
Method in brief: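 Baculovirus/SF-9-expressed HCMV polymerase in SPA with 90 nM ^3H-dTTP and 6 nM biotinylated poly(dA)-oligo(dT), pH 7.5 HEPES/KCl/MgCl2/BSA, with or without 2 mM CHAPS. Runs 30 min at 25 C. or 37 C., EDTA stop, streptavidin-SPA beads counted; IC50 by linear regression. Modified version: compounds diluted in 100% DMSO rather than 50%, plus 4.5 mM DTT.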

Row | IC50 [1] [nM] | melting point | Compound
1 | 590 | 202.5 to 204.5 °C | COCOCc1ccccc1C1Cn2cc(C(=O)NCc3ccc(Cl)cc3)c(=O)c3cc(CN4CCOCC4)cc(c32)O1 (stereo not shown) [Example 66, N-(4-Chlorobenzyl)-2-{2-[(methoxymethoxy)methyl]phenyl}-9-(morpholin-4-ylmethyl)-7-oxo-2,3-dihydro-7H-[1,4]oxazino[2,3,4-ij]quinoline-6-carboxamide]
2 | 1690 | 236 to 239 °C | COCOCc1ccc(C2Cn3cc(C(=O)NCc4ccc(Cl)cc4)c(=O)c4cc(CN5CCOCC5)cc(c43)O2)cc1 (stereo not shown) [Example 67, N-(4-Chlorobenzyl)-2-{4-[(methoxymethoxy)methyl]phenyl}-9-(morpholin-4-ylmethyl)-7-oxo-2,3-dihydro-7H-[1,4]oxazino[2,3,4-ij]quinoline-6-carboxamide]
3 | 330 | 218 to 223 °C (dec.) | O=C(NCc1ccc(Cl)cc1)c1cn2c3c(cc(CN4CCOCC4)cc3c1=O)OC(c1ccccc1CO)C2 (stereo not shown) [Example 69, N-(4-Chlorobenzyl)-2-[2-(hydroxymethyl)phenyl]-9-(morpholin-4-ylmethyl)-7-oxo-2,3-dihydro-7H-[1,4]oxazino[2,3,4-ij]quinoline-6-carboxamide]

The remaining lines, values behind:

Row | Compound | IC50 [1] [nM] | melting point
4 | O=C(NCc1ccc(Cl)cc1)c1cn2c3c(cc(CN4CCOCC4)cc3c1=O)OC(c1cccc(O)c1)C2 (stereo not shown) [Example 63, N-(4-Chlorobenzyl)-2-(3-hydroxyphenyl)-9-(4-morpholinylmethyl)-7-oxo-2,3-dihydro-7H-[1,4]oxazino[2,3,4-ij]quinoline-6-carboxamide] | 290 | 213 °C (dec.)
5 | O=C(NCc1ccc(Cl)cc1)c1cn2c3c(cc(CN4CCOCC4)cc3c1=O)OC(c1ccc(O)cc1)C2 (stereo not shown) [Example 65, N-(4-Chlorobenzyl)-2-(4-hydroxyphenyl)-9-(morpholin-4-ylmethyl)-7-oxo-2,3-dihydro-7H-[1,4]oxazino[2,3,4-ij]quinoline-6-carboxamide] | 450 | > 260 °C
